Measurements from ChEMBL document CHEMBL1201862, “PubChem BioAssay data set” (2004).
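Method: 48-hour compound exposure of cells in 96-well plates, five concentrations, linear interpolation of endpoints. The concentration for 50% growth inhibition is given as GI50.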 The source made the active and inactive calls. No stated cut-off is given here; in the data, active = GI50 up to about 1.1 µM and inactive = higher.

Tests used:
Experiment in all cases: NCI tumour cell line growth inhibition, 48 h
U-251 = tested on: U-251
SK-MEL-28 = tested on: SK-MEL-28
SN12C = tested on: SN12C
MOLT-4 = tested on: MOLT-4
A549 = tested on: A549
MDA-MB-231 = tested on: MDA-MB-231
BT-549 = tested on: BT-549
SF-295 = tested on: SF-295
CCRF-CEM = tested on: CCRF-CEM
SF-268 = tested on: SF-268
SF-539 = tested on: SF-539
MDA-MB-435 = tested on: MDA-MB-435
CAKI-1 = tested on: CAKI-1
NCI-H23 = tested on: NCI-H23
PC-3 = tested on: PC-3
T47D = tested on: T47D
NCI-H522 = tested on: NCI-H522
SNB-75 = tested on: SNB-75
EKVX = tested on: EKVX
786-0 = tested on: 786-0
HT-29 = tested on: HT-29
LOX IMVI = tested on: LOX IMVI
OVCAR-4 = tested on: OVCAR-4
NCI-H460 = tested on: NCI-H460
KM12 = tested on: KM12
COLO 205 = tested on: COLO 205
SNB-19 = tested on: SNB-19
A498 = tested on: A498
HOP-62 = tested on: HOP-62
NCI-H226 = tested on: NCI-H226
Hs-578T = tested on: Hs-578T
UACC-257 = tested on: UACC-257
SK-MEL-2 = tested on: SK-MEL-2
Malme-3M = tested on: Malme-3M
HCC 2998 = tested on: HCC 2998
HCT-15 = tested on: HCT-15
SK-MEL-5 = tested on: SK-MEL-5
SW-620 = tested on: SW-620
M14 = tested on: M14
OVCAR-8 = tested on: OVCAR-8
IGROV-1 = tested on: IGROV-1
TK-10 = tested on: TK-10
MCF7 = tested on: MCF7
NCI/ADR-RES = tested on: NCI/ADR-RES
ACHN = tested on: ACHN
UO-31 = tested on: UO-31
HL-60 = tested on: HL-60
SR = tested on: SR
HCT-116 = tested on: HCT-116
OVCAR-5 = tested on: OVCAR-5
DU-145 = tested on: DU-145
HOP-92 = tested on: HOP-92
RXF 393 = tested on: RXF 393
K562 = tested on: K562
SK-OV-3 = tested on: SK-OV-3
RPMI-8226 = tested on: RPMI-8226
UACC-62 = tested on: UACC-62
MDA-N = tested on: MDA-N
OVCAR-3 = tested on: OVCAR-3

Cn1c2ccccc2n2c(=O)c(-c3ccc(O)cc3)nnc12
GI50 (U-251): 28.2 µM (inactive) | GI50 (SK-MEL-28): > 100 µM (inactive) | GI50 (SN12C): > 100 µM (inactive) | GI50 (MOLT-4): > 100 µM (inactive) | GI50 (A549): > 100 µM (inactive) | GI50 (MDA-MB-231): 31.2 µM (inactive) | GI50 (BT-549): 56 µM (inactive) | GI50 (SF-295): 18.3 µM (inactive) | GI50 (CCRF-CEM): > 100 µM (inactive) | GI50 (SF-268): 64.7 µM (inactive) | GI50 (SF-539): 35 µM (inactive) | GI50 (MDA-MB-435): > 100 µM (inactive) | GI50 (CAKI-1): 27.7 µM (inactive) | GI50 (NCI-H23): > 100 µM (inactive) | GI50 (PC-3): > 100 µM (inactive) | GI50 (T47D): > 100 µM (inactive) | GI50 (NCI-H522): 96.8 µM (inactive) | GI50 (SNB-75): 25.8 µM (inactive) | GI50 (EKVX): 21.2 µM (inactive) | GI50 (786-0): 40.2 µM (inactive) | GI50 (HT-29): > 100 µM (inactive) | GI50 (LOX IMVI): 69.8 µM (inactive) | GI50 (OVCAR-4): > 100 µM (inactive) | GI50 (NCI-H460): 87.3 µM (inactive) | GI50 (KM12): > 100 µM (inactive) | GI50 (COLO 205): > 100 µM (inactive) | GI50 (SNB-19): 80.4 µM (inactive) | GI50 (A498): > 100 µM (inactive) | GI50 (HOP-62): 42.4 µM (inactive) | GI50 (NCI-H226): 46.6 µM (inactive) | GI50 (Hs-578T): 34.8 µM (inactive) | GI50 (UACC-257): > 100 µM (inactive) | GI50 (SK-MEL-2): > 100 µM (inactive) | GI50 (Malme-3M): > 100 µM (inactive) | GI50 (HCC 2998): > 100 µM (inactive) | GI50 (HCT-15): > 100 µM | GI50 (SK-MEL-5): > 100 µM (inactive) | GI50 (SW-620): > 100 µM (inactive) | GI50 (M14): > 100 µM (inactive) | GI50 (OVCAR-8): > 100 µM (inactive) | GI50 (IGROV-1): > 100 µM (inactive) | GI50 (TK-10): > 100 µM (inactive) | GI50 (MCF7): > 100 µM (inactive) | GI50 (NCI/ADR-RES): > 100 µM (inactive) | GI50 (ACHN): 70 µM (inactive) | GI50 (UO-31): > 100 µM (inactive) | GI50 (HL-60): > 100 µM (inactive) | GI50 (SR): > 100 µM (inactive) | GI50 (HCT-116): > 100 µM (inactive) | GI50 (OVCAR-5): > 100 µM (inactive) | GI50 (DU-145): > 100 µM (inactive) | GI50 (HOP-92): > 100 µM (inactive)

C[C@@H](Br)[C@@H]1CC[C@H]2c3[nH]c4ccccc4c3CCN2C1
GI50 (U-251): 21.5 µM (inactive) | GI50 (SK-MEL-28): 24.4 µM (inactive) | GI50 (MOLT-4): 17.7 µM (inactive) | GI50 (A549): 34.4 µM (inactive) | GI50 (RXF 393): 20.4 µM (inactive) | GI50 (MDA-MB-231): 16.1 µM (inactive) | GI50 (K562): 15.5 µM (inactive) | GI50 (SF-295): 19.5 µM (inactive) | GI50 (CCRF-CEM): 17.5 µM (inactive) | GI50 (SF-268): 26.8 µM (inactive) | GI50 (SK-OV-3): 24.7 µM (inactive) | GI50 (MDA-MB-435): 16.3 µM (inactive) | GI50 (CAKI-1): 16.6 µM (inactive) | GI50 (NCI-H23): 20.5 µM (inactive) | GI50 (PC-3): 22.4 µM (inactive) | GI50 (RPMI-8226): 13.6 µM (inactive) | GI50 (T47D): 16.5 µM (inactive) | GI50 (NCI-H522): 13.2 µM (inactive) | GI50 (SNB-75): 18.5 µM (inactive) | GI50 (EKVX): 33.1 µM (inactive) | GI50 (786-0): 18.6 µM (inactive) | GI50 (UACC-62): 14.5 µM (inactive) | GI50 (HT-29): 25 µM (inactive) | GI50 (LOX IMVI): 16.5 µM (inactive) | GI50 (OVCAR-4): 28 µM (inactive) | GI50 (NCI-H460): 22.5 µM (inactive) | GI50 (KM12): 14.5 µM (inactive) | GI50 (COLO 205): 13.5 µM (inactive) | GI50 (SNB-19): 20.1 µM (inactive) | GI50 (A498): 31.2 µM (inactive) | GI50 (HOP-62): 18.6 µM (inactive) | GI50 (NCI-H226): 28.6 µM (inactive) | GI50 (Hs-578T): 13.3 µM (inactive) | GI50 (UACC-257): 27.4 µM (inactive) | GI50 (SK-MEL-2): 20.6 µM (inactive) | GI50 (Malme-3M): 18.8 µM (inactive) | GI50 (MDA-N): 19.4 µM (inactive) | GI50 (HCC 2998): 16 µM (inactive) | GI50 (HCT-15): 17.5 µM | GI50 (SK-MEL-5): 15.9 µM (inactive) | GI50 (SW-620): 21.8 µM (inactive) | GI50 (M14): 19.8 µM (inactive) | GI50 (OVCAR-8): 26.9 µM (inactive) | GI50 (IGROV-1): 12.1 µM (inactive) | GI50 (TK-10): 31.7 µM (inactive) | GI50 (MCF7): 23.7 µM (inactive) | GI50 (NCI/ADR-RES): 20.2 µM (inactive) | GI50 (ACHN): 33.8 µM (inactive) | GI50 (UO-31): 24.8 µM (inactive) | GI50 (HL-60): 20 µM (inactive) | GI50 (SR): 16.5 µM (inactive) | GI50 (OVCAR-5): 34.4 µM (inactive) | GI50 (OVCAR-3): 15.6 µM (inactive) | GI50 (DU-145): 29.3 µM (inactive) | GI50 (HOP-92): 18.1 µM (inactive)
